From publication PMC6437697 (Journal of Medicinal Chemistry, 2019) come the findings set out here.

What all share (test): KINOMEscan
What all share (assay type): binding
What all share (details): read-out: % control activity remaining

The target in one assay is T1, EPHB3 (Homo sapiens, UniProt P54753).
T1 construct: purchased Eurofins DiscoverX KINOMEscan
T1 sequence (P54753 34-998): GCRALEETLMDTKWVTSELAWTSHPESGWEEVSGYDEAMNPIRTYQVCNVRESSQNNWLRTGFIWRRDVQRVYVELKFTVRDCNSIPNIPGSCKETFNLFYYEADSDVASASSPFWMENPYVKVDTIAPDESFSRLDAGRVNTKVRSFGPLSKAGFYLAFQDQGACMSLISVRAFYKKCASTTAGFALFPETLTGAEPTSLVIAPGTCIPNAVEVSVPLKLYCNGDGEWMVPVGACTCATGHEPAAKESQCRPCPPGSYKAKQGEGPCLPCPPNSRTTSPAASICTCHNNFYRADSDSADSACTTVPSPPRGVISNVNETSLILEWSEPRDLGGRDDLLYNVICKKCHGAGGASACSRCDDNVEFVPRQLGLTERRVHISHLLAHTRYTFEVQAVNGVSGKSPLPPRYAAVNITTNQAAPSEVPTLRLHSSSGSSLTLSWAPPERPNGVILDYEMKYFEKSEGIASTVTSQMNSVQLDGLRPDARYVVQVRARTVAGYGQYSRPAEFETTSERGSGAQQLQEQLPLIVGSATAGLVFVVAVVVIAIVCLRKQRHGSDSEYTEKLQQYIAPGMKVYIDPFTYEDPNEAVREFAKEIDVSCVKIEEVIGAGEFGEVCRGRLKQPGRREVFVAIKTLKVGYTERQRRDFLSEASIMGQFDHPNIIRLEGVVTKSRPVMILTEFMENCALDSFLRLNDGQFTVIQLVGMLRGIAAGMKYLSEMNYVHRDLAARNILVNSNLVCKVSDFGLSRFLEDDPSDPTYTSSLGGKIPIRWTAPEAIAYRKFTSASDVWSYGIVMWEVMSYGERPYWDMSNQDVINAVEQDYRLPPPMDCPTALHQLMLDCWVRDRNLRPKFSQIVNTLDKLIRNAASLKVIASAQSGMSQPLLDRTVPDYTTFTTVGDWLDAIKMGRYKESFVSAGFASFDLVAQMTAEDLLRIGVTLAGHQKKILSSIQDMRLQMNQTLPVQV

For a further assay, the target named is T2, MAK (Homo sapiens, UniProt P20794).
T2 construct: purchased Eurofins DiscoverX KINOMEscan
T2 sequence (P20794 1-623): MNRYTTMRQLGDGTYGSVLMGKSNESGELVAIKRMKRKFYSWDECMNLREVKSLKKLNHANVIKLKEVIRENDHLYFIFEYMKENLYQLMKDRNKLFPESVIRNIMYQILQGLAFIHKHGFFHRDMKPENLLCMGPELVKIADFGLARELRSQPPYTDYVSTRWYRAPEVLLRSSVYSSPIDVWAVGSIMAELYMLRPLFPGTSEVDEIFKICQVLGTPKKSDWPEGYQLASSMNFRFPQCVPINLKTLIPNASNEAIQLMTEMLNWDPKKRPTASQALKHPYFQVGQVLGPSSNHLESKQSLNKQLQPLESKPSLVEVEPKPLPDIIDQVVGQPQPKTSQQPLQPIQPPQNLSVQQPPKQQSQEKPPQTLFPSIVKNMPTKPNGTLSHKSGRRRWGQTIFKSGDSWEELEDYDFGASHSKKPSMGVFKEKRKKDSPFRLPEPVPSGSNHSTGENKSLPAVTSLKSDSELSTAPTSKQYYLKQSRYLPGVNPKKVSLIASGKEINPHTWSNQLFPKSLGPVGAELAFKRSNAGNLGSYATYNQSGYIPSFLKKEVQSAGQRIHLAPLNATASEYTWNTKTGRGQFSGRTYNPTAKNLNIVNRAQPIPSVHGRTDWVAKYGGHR

The next assay deals with T3, MAP3K4 (Homo sapiens, UniProt Q9Y6R4).
T3 construct: purchased Eurofins DiscoverX KINOMEscan

In the next assay the target is T4, PIK3CA(H1047Y) (Homo sapiens, UniProt P42336, H1047Y).
T4 construct: purchased Eurofins DiscoverX KINOMEscan

The next assay deals with T5, RIPK4 (Homo sapiens, UniProt P57078).
T5 construct: purchased Eurofins DiscoverX KINOMEscan
T5 sequence (P57078 1-832): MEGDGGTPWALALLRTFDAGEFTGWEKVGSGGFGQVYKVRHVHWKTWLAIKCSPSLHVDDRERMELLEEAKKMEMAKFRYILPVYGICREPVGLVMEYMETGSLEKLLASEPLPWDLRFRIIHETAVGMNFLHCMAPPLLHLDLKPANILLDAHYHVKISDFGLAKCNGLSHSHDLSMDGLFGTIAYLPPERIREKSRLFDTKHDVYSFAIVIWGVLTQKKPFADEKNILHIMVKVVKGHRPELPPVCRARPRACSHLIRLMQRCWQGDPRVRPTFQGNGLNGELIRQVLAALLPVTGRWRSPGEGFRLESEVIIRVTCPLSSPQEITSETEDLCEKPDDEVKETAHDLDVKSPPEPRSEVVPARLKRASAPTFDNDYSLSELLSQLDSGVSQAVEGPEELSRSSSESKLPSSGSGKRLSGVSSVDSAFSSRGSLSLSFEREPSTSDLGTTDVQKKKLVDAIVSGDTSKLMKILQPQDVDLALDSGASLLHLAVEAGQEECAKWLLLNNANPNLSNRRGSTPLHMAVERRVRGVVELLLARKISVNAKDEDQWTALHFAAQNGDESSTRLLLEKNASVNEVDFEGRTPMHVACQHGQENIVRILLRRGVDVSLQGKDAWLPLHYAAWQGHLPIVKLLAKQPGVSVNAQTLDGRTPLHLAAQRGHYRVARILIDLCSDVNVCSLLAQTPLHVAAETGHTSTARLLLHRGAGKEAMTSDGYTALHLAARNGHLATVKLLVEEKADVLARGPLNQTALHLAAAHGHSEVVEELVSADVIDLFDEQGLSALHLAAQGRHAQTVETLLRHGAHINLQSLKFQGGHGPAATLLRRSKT

T3 sequence (Q9Y6R4 whole entry): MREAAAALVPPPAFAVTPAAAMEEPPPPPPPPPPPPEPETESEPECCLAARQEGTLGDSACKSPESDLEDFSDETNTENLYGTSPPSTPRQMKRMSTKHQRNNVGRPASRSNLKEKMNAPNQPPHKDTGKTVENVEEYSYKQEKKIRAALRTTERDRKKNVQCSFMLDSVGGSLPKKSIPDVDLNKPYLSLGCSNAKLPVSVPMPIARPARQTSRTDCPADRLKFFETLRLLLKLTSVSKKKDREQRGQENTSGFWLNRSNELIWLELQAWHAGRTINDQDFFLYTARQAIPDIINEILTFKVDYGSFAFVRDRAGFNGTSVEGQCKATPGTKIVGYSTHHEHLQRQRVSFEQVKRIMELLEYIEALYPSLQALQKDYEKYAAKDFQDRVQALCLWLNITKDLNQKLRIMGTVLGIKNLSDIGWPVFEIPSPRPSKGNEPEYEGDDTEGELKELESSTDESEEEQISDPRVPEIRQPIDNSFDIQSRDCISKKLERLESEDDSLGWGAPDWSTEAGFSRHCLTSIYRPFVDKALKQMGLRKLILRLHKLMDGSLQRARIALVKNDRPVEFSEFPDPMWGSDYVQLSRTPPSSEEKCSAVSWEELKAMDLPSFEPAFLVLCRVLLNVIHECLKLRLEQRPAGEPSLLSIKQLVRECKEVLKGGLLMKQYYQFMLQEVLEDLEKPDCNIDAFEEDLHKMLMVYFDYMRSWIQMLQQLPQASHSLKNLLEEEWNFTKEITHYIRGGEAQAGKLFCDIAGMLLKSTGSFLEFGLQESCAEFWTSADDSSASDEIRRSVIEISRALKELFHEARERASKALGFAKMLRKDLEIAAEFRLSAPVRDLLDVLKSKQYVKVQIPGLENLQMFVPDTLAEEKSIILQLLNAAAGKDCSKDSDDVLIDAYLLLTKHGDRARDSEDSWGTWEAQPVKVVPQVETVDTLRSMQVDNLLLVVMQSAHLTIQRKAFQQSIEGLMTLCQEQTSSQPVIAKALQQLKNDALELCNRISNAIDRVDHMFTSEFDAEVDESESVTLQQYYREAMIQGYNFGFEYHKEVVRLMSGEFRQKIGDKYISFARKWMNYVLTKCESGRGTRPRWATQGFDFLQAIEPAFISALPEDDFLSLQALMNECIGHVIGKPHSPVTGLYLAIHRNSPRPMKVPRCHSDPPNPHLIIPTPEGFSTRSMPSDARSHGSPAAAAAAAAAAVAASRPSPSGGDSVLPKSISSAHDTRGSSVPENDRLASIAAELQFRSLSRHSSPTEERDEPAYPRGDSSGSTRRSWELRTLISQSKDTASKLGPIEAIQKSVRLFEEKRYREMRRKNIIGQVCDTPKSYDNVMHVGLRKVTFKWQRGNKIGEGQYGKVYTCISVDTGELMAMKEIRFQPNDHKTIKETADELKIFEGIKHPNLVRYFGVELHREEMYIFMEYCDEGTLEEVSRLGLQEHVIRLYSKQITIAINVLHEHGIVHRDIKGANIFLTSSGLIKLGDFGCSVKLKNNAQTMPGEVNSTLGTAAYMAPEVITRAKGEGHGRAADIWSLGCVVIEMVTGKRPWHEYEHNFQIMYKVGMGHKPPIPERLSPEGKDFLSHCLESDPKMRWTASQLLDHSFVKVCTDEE
T4 sequence (P42336 whole entry H1047Y): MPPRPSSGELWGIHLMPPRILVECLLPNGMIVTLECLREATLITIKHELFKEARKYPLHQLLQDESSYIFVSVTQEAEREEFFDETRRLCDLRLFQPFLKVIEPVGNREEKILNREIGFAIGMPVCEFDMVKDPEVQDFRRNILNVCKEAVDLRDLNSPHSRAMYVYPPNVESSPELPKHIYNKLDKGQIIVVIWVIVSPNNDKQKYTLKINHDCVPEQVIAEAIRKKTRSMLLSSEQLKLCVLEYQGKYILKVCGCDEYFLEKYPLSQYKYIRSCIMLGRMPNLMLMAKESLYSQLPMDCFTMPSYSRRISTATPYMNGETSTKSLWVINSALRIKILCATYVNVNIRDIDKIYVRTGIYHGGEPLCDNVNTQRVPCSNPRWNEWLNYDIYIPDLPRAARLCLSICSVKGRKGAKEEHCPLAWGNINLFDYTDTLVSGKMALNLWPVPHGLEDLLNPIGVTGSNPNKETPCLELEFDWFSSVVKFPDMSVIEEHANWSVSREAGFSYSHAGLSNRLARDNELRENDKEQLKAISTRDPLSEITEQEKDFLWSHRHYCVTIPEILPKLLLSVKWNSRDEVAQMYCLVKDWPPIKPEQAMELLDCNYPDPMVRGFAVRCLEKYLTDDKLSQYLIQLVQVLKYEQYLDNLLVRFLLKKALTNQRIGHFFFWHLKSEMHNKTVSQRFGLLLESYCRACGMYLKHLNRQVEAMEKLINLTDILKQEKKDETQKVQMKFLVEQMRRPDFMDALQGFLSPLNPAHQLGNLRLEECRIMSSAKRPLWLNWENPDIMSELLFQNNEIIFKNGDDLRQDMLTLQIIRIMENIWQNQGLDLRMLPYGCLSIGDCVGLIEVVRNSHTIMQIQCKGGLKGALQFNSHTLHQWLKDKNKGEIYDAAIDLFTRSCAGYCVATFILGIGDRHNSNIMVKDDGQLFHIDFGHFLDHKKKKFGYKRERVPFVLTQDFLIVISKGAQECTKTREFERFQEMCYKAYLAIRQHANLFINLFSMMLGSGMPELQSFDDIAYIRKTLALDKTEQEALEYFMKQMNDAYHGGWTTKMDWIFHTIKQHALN

As to `Clc1cc(NCC2CC2)c2ncc(-c3ccc4[nH]ncc4c3)n2n1` [compound 2, 6-Chloro-N-(cyclopropylmethyl)-3-(1H-indazol-5-yl)imidazo[1,2-b]pyridazin-8-amine], the remaining binding at 1 µM at EPHB3 turned out to be 82%; on MAK, 82%; on MAP3K4, 74%; at PIK3CA(H1047Y), 89%; on RIPK4 it was 96%.
As to `O=C(CN1CCOCC1)N[C@H]1CC[C@H](Nc2cc(Cl)nn3c(-c4ccc5[nH]ncc5c4)cnc23)CC1` [compound 26], the remaining binding at 1 µM is 88% at EPHB3; 61% at MAK; 86% at MAP3K4; 82% at PIK3CA(H1047Y); 95% at RIPK4.
On the same counts, the results for `CN1CCC(CNc2cc(Cl)nn3c(-c4cc5nc(Nc6ccccc6)[nH]c5cc4F)cnc23)CC1` [compound 31, 6-Chloro-3-(6-fluoro-2-(phenylamino)-1H-benzo[d]imidazol-5-yl)-N-((1-methylpiperidin-4-yl)methyl)imidazo[1,2-b]pyridazin-8-amine] are 92%, 69%, 86%, 100% and 98%.
